Assay results taken from patent US20210268450A1, “COMPOSITION USEFUL FOR PRODUCTION OF ACIDIC GAS SEPARATION MEMBRANE” (SUMITOMO CHEMICAL COMPANY, LIMITED, priority 2018, published 2021).

Assay: acid dissociation constant in a 25° C. aqueous solution (titration method)
Type: physicochemical
Conditions: for acid dissociation constant in a 25° C. aqueous solution 1: first constant; for acid dissociation constant 2: second constant
Text: This acid dissociation constant is a value as measured by a known titration method based on the definition of Bronsted (Shinpan Bunseki Kagaku Jikken, Nihon Bunseki Kagakukai Hokkaido Shibu ed., pp. 219 to 237).

Row | SMILES | acid dissociation constant in a 25° C. aqueous solution 1 | acid dissociation constant 2 | acid dissociation constant 3 (third constant) | acid dissociation constant in a 25° C. aqueous solution (single constant)
1 | Oc1cc(O)cc(O)c1 [Weakly acidic organic compound 2, phloroglucinol] | 8.0 | 9.2 | 14.0 | –
2 | Oc1ccccc1O [Weakly acidic organic compound 6, catechol] | 9.1 | 12.1 | – | –
3 | Oc1cccc(O)c1O [Weakly acidic organic compound 5, pyrogallol] | 9.0 | 11.6 | – | –

Other lines, results leading:

Row | acid dissociation constant in a 25° C. aqueous solution 1 | acid dissociation constant 2 | acid dissociation constant 3 (third constant) | acid dissociation constant in a 25° C. aqueous solution (single constant) | SMILES
4 | – | – | – | 12.9 | CS(=O)(=O)Nc1ccccc1 [Weakly acidic organic compound 4, N-phenylmethanesulfonamide]
5 | 9.3 | 9.8 | – | – | Oc1cccc(O)c1 [Weakly acidic organic compound 1, resorcinol]
